# In PubChem BioAssay (NCI):
#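 GI50: concentration for 50% inhibition of growth. The concentration for full growth arrest is given as TGI.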
# Legend:
# Assay in all cases: NCI anticancer screen, dose series, 384-well format
# [1] = system: SK-MEL-5 melanoma
# [2] = system: UACC-257 melanoma
# [3] = system: NCI-H460 NSCLC
# [4] = system: NCI-H23 lung
# [5] = system: SNB-19 CNS
# [6] = system: TK-10 renal
# [7] = system: SF-268 CNS
# [8] = system: MDA-MB-468 breast
# [9] = system: HT29 colon
# [10] = system: HL-60(TB) leukemia
# [11] = system: CAKI-1 renal
# [12] = system: SF-539 CNS
# [13] = system: SR leukemia
# [14] = system: SK-OV-3 ovarian
# [15] = system: MALME-3M melanoma
# [16] = system: DU-145 prostate
# [17] = system: UACC-62 melanoma
# [18] = system: NCI-H322M lung
# [19] = system: IGROV1 ovarian
# [20] = system: A498 renal
# [21] = system: OVCAR-3 ovarian
# [22] = system: SK-MEL-28 melanoma
# [23] = system: U251 glioblastoma
# [24] = system: SN12C renal
# [25] = system: MDA-MB-435 melanoma
# [26] = system: NCI/ADR-RES ovarian
# [27] = system: RPMI-8226 leukemia
# [28] = system: SF-295 CNS
# [29] = system: MDA-MB-231 breast
# [30] = system: BT-549 breast
# [31] = system: HCT-15 colon
# [32] = system: ACHN renal
# [33] = system: M14 melanoma
# [34] = system: PC-3 prostate
# [35] = system: HCC-2998 colon
# [36] = system: OVCAR-5 ovarian
# [37] = system: RXF 393 renal
# [38] = system: NCI-H522 lung
# [39] = system: COLO 205 colon
# [40] = system: MCF7 breast
# [41] = system: HS 578T breast
# [42] = system: HOP-92 NSCLC
# [43] = system: HOP-62 NSCLC
# [44] = system: OVCAR-4 ovarian
# [45] = system: MOLT-4 leukemia
# [46] = system: T-47D breast
# [47] = system: A549 NSCLC
# [48] = system: KM12 colon
# [49] = system: NCI-H226 lung
# [50] = system: LOX IMVI melanoma
# [51] = system: EKVX NSCLC
# [52] = system: SNB-75 CNS
# [53] = system: OVCAR-8 ovarian
# [54] = system: HCT-116 colon
structure (smiles),measurement,setting,value
N[C@@H]1CCCN(c2c(/C=C3\SC(=O)NC3=O)cccc2-c2ccccc2)C1,GI50,[1],11.4 µM
same,TGI,[1],23.5 µM
same,GI50,[2],15.9 µM
same,TGI,[2],29.4 µM
same,GI50,[3],16.8 µM
same,TGI,[3],30.6 µM
same,GI50,[4],16.8 µM
same,TGI,[4],30.6 µM
same,GI50,[5],4.67 µM
same,TGI,[5],15 µM
same,GI50,[6],12.3 µM
same,TGI,[6],24.9 µM
same,GI50,[7],16.8 µM
same,TGI,[7],30.6 µM
same,GI50,[8],14.6 µM
same,TGI,[8],27.8 µM
same,GI50,[9],15.2 µM
same,TGI,[9],28.8 µM
same,GI50,[10],1.31 µM
same,TGI,[10],16.5 µM
same,GI50,[11],18.5 µM
same,TGI,[11],32.8 µM
same,GI50,[12],7.38 µM
same,TGI,[12],20.2 µM
same,GI50,[13],1.16 µM
same,TGI,[13],15.5 µM
same,GI50,[14],14.8 µM
same,TGI,[14],28.5 µM
same,GI50,[15],12.9 µM
same,TGI,[15],25.7 µM
same,GI50,[16],16.9 µM
same,TGI,[16],30.7 µM
same,GI50,[17],16.6 µM
same,TGI,[17],30.4 µM
same,GI50,[18],18 µM
same,TGI,[18],31.9 µM
same,GI50,[19],17.1 µM
same,TGI,[19],31.2 µM
same,GI50,[20],16.6 µM
same,TGI,[20],30.3 µM
same,GI50,[21],13.1 µM
same,TGI,[21],25.9 µM
same,GI50,[22],16.9 µM
same,TGI,[22],30.7 µM
same,GI50,[23],8.54 µM
same,TGI,[23],20.8 µM
same,GI50,[24],19.4 µM
same,TGI,[24],33.6 µM
same,GI50,[25],15.1 µM
same,TGI,[25],28.5 µM
same,GI50,[26],18.1 µM
same,TGI,[26],33.1 µM
same,GI50,[27],0.543 µM
same,TGI,[27],3.07 µM
same,GI50,[28],6.08 µM
same,TGI,[28],18.7 µM
same,GI50,[29],14.5 µM
same,TGI,[29],27.8 µM
same,GI50,[30],1.9 µM
same,TGI,[30],4.17 µM
same,GI50,[31],17.7 µM
same,TGI,[31],31.7 µM
same,GI50,[32],17.7 µM
same,TGI,[32],31.7 µM
same,GI50,[33],14.6 µM
same,TGI,[33],27.8 µM
same,GI50,[34],13.2 µM
same,TGI,[34],26 µM
same,GI50,[35],14.5 µM
same,TGI,[35],27.7 µM
same,GI50,[36],17 µM
same,TGI,[36],30.8 µM
same,GI50,[37],17 µM
same,TGI,[37],30.8 µM
same,GI50,[38],13.5 µM
same,TGI,[38],26.4 µM
same,GI50,[39],14.1 µM
same,TGI,[39],27.1 µM
same,GI50,[40],14.5 µM
same,TGI,[40],27.8 µM
same,GI50,[41],13.8 µM
same,TGI,[41],26.8 µM
same,GI50,[42],11.5 µM
same,TGI,[42],23.8 µM
same,GI50,[43],11.7 µM
same,TGI,[43],23.9 µM
same,GI50,[44],12.3 µM
same,TGI,[44],25.3 µM
same,GI50,[45],13.4 µM
same,TGI,[45],26.3 µM
same,GI50,[46],15.6 µM
same,TGI,[46],29 µM
same,GI50,[47],16.7 µM
same,TGI,[47],30.8 µM
same,GI50,[48],16.9 µM
same,TGI,[48],30.8 µM
same,GI50,[49],13.8 µM
same,TGI,[49],26.7 µM
same,GI50,[50],17.8 µM
same,TGI,[50],31.6 µM
same,GI50,[51],16.4 µM
same,TGI,[51],30 µM
same,GI50,[52],3.5 µM
same,TGI,[52],12.1 µM
same,GI50,[53],16.2 µM
same,TGI,[53],29.9 µM
same,GI50,[54],15.4 µM
same,TGI,[54],28.9 µM
N#Cc1ccc(C(c2ccc(C#N)cc2)n2cncn2)cc1,GI50,[37],16.8 µM
same,TGI,[37],97.8 µM
